Test results published in article PMC11035696, “Prospective de novo drug design with deep interactome learning” (Nature Communications, 2024).

What was measured:
[1] = target: T1, PPARγ LBD protein (Homo sapiens, UniProt P37231); experiment: Isothermal titration calorimetry (ITC); type: binding
T1 construct: PPARγ LBD protein (30 μM, prepared as described previously[106]); made in house
Description: (§1) Compounds 1–3 were characterized in a hybrid reporter gene assay for their agoniztic effect on human nuclear receptors PPARα/γ/δ, RXRα, FXRα, RARα in HEK293T cells. Compound 1 was tested in an isothermal titration calorimetry (ITC) assay to measure direct binding affinity to the ligand-binding domain of PPARγ. ADME properties were measured in standardized assays at Roche.
ITC experiments were conducted on an Affinity ITC instrument (TA Instruments, New Castle, DE) at 25 °C with a stirring rate of 75 rpm. PPARγ LBD protein (30 μM, prepared as described previously[106]) in buffer (20 mM Tris pH 7.5, 150 mM NaCl, 5% glycerol) containing 5% DMSO was titrated with the test compound (1) (100 μM in the same buffer containing 5% DMSO) in 21 injections (1 × 1μl and 20 × 5μl) with an injection interval of 120 s. The test compound was titrated into buffer, and the buffer was titrated to the PPARγ LBD proteins under otherwise identical conditions. The ITC results were analyzed using NanoAnalyze software (TA Instruments, New Castle, DE) with an independent binding model.

[2] = target: T2, human PPARα (Homo sapiens, UniProt Q07869); experiment: Gal4-hybrid reporter gene assay, PPARα activation; type: cell-based; details: hybrid reporter gene assay, result in words
T2 construct: expressed in transfected cells; host or cells: HEK293T
T2 sequence (Q07869 239-466 limits assumed): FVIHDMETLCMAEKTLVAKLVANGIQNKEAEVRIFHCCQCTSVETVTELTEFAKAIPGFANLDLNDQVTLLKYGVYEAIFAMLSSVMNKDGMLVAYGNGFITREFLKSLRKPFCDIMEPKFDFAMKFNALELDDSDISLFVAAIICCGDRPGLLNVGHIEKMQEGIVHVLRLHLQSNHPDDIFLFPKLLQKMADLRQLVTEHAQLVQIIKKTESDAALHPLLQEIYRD
Description: as §1
PPAR activation was determined in uniform Gal4-hybrid reporter gene assays for the PPARα, PPARγ and PPARδ isoforms in HEK293T cells (German Collection of Microorganisms and Cell Culture GmbH, DSMZ) which were transiently transfected with pFR-Luc (Stratagene, La Jolla, CA, USA; reporter) and pRL-SV40 (Promega, Madison, WI, USA; internal control) and one pFA-CMV-hPPAR-LBD[97] clone, coding for the hinge region and ligand binding domain of the canonical isoform of human PPARα, PPARγ, PPARδ or respectively. Cells were cultured in Dulbecco’s modified Eagle’s medium (DMEM), high glucose supplemented with 10% fetal calf serum (FCS), sodium pyruvate (1 mM), penicillin (100 U ⋅ ml^-1), and streptomycin (100 μg ⋅ ml^-1) at 37 °C and 5% CO2 and seeded in 96-well plates (3 × 10^4 cells per well). After 24 h, medium was changed to Opti-MEM without supplements and cells were transiently transfected using Lipofectamine LTX reagent (Invitrogen) according to the manufacturer’s protocol. Five hours after transfection, cells were incubated with the test compounds in Opti-MEM supplemented with penicillin (100 U ⋅ ml^-1), streptomycin (100 μg ⋅ ml^-1) and 0.1% DMSO for 16 h before luciferase activity was measured using the Dual-Glo Luciferase Assay System (Promega) according to the manufacturer’s protocol on a Tecan Spark luminometer (Tecan Deutschland GmbH, Germany). Firefly luminescence was divided by Renilla luminescence and multiplied by 1000 resulting in relative light units (RLU) to normalize for transfection efficiency and cell growth. Fold activation was obtained by dividing the mean RLU of a test compound by the mean RLU of the untreated control. All samples were tested in at least three biologically independent experiments in duplicates. For dose-response curve fitting and calculation of EC50 values, the equation “[Agonist] versus response (variable slope—four parameters)” was used in GraphPad Prism (version 7.00, GraphPad Software, La Jolla, CA, USA) with fold activation data. The reference agonizts GW7647 (PPARα)[98],[99], pioglitazone (PPARγ)[100],[101] and L165,041 (PPARδ)[102],[103] were used to validate the assays and to monitor assay performance. Nuclear receptor selectivity profiling was performed with corresponding pFA-CMV-hNR-LBD clones and suitable reference agonizts on RARα (pFA-CMV-hRARα-LBD[104], 1 μM tretinoin), LXRα (pFA-CMV-hLXRα-LBD[104], 1 μM TO901317) and RXRα (pFA-CMV-h RXRα-LBD[105], 1 μM Bexarotene).

T1 sequence (P37231 238-503 limits assumed): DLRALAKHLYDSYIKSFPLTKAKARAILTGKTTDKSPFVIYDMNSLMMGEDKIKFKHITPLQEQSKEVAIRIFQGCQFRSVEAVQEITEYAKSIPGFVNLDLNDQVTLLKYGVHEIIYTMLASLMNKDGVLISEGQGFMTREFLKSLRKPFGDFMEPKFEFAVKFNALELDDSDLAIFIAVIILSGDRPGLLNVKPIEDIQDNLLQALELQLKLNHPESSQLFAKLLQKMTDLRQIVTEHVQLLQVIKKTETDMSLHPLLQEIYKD

| Structure (SMILES) | molar ratio (ligand per protein) [1] | Kd ([1]; 25 °C, ligand binding domain of PPARγ, read-out: dissociation constant KD) [µM] | activity on PPARα [2] |
| --- | --- | --- | --- |
| Cc1nnc(-c2ccc(OCCCOc3ccc(CCC(=O)O)c(F)c3)c(F)c2)s1 [Compound 1] | one ligand per protein molecule | 0.8 ± 0.1 |  |
| COc1ccc(Oc2ccc3ncn(CCOc4ccc(CCC(=O)O)cc4)c3c2)cc1 [Compound 2] |  |  | no discernible impact |
